As a reminder, the EC50 is the concentration that produces a half-maximal response. What is called Emax is the maximal effect, on the per cent scale that the assay sets. Broadly, the Cmax is the maximum level reached in the sampled fluid or tissue.

One data set deals with T1, minipig MrgX2 (mpMrgX2) (Sus scrofa, UniProt A0A4Y5P9C0).
T1 sequence (A0A4Y5P9C0 38-367): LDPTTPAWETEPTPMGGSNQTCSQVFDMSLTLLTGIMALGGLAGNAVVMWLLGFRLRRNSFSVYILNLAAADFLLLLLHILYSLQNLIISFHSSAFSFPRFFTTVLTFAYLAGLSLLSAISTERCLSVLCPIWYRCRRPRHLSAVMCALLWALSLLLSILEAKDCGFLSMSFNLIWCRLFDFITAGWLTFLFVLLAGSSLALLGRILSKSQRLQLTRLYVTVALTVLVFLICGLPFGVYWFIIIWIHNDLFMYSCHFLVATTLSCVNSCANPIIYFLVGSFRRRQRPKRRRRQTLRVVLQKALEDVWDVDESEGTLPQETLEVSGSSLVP
The data set is described as follows: Ca2+ mobilization. Type of data set: cell-based. The following applies: for calcium response (in words): truncated mpMrgX2. On the technique in general: Calcium assays in cells follow changes in intracellular calcium, usually with a dye or a luminescent sensor.

Data set [1] deals with T2, human MrgX2 (hMrgX2) (Homo sapiens, UniProt Q96LB1).
T2 sequence (Q96LB1 1-330): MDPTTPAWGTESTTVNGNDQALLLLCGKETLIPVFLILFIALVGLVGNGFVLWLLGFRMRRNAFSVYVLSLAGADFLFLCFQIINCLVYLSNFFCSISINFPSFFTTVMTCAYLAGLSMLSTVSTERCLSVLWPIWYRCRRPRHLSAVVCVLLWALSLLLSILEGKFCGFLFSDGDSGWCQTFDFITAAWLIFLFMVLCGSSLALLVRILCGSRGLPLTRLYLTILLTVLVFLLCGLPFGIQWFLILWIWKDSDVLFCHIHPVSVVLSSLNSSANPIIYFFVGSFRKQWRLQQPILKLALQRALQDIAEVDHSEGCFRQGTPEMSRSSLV
Kind of data set: Ca2+ mobilization. The data set is classed as cell-based.

Data set [2] has as its system U2OS cells (untransfected). The data set is described as follows: Ca2+ mobilization in U2OS cells lacking MrgX2. Type of data set: cell-based, human.
For another data set, the system named is rat. Kind of data set: Intravenous pharmacokinetic study in rat: observed adverse signs. Type of data set: in vivo. The following applies: intravenous bolus 5 mg/kg.
For data set [3], the system named is rat MrgX2 (rMrgX2, Mrgprb3). The data set is described as follows: Ca2+ mobilization. The settings on record: for calcium response (in words): no Gα16. The data set is classed as cell-based.
Data set [4] concerns the target T3, truncated beagle MrgX2 (beMrgX2) (Canis lupus familiaris, UniProt A0A4Y5P885).
T3 sequence (A0A4Y5P885 88-417): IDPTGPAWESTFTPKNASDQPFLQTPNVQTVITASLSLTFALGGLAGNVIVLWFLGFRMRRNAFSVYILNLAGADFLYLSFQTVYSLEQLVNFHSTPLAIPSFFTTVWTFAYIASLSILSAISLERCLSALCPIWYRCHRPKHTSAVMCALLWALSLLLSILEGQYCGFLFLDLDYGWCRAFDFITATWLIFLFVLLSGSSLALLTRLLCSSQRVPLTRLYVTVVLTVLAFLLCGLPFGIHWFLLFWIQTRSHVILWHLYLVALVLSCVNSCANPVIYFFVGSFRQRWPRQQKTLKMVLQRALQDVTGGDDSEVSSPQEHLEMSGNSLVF
Kind of data set: Ca2+ mobilization. The data set is classed as cell-based, beagle dog. The settings on record: for calcium response (in words): truncated beMrgX2.

In a further data set the test system is pig MrgX2 (pMrgX2). Kind of data set: Ca2+ mobilization. The data set is classed as cell-based. The settings on record: data not shown.
The subject of data set [5] is mouse MrgX2 versus human MrgX2. The settings on record: cited from earlier work.
Another data set concerns the target human MrgX1 (hMrgX1) (Homo sapiens, UniProt Q96LB2). The data set is described as follows: Ca2+ mobilization. Type of data set: cell-based. The following applies: hMrgX1-Gα16 cells.
In data set [6] the target is EED (embryonic ectoderm development) (Homo sapiens, UniProt O75530). The data set is described as follows: Binding to EED.
EED (embryonic ectoderm development), sequence (O75530 whole entry, species assumed): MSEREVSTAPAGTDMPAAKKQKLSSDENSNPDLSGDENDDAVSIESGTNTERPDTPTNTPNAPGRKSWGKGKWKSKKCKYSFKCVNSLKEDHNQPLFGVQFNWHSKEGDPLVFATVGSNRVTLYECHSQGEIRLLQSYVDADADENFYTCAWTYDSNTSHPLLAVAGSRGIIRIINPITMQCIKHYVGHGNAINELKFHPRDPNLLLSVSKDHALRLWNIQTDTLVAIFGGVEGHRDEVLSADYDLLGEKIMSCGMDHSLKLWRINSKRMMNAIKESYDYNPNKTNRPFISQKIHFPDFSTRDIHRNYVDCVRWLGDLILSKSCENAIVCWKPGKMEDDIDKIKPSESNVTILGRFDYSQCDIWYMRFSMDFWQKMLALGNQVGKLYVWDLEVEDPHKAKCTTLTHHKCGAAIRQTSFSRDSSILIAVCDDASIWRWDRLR
A further data set relates to HEK293-MSRII-Gα16 cells. The data set is described as follows: Ca2+ mobilization, untransfected HEK293-MSRII-Gα16 host cells. Type of data set: cell-based, human. The following applies: data not shown.
In another data set the test system is mpMrgX2. Kind of data set: Ca2+ mobilization, mpMrgX2 transfected into HEK293-MSRII-Gα16 cells. Type of data set: cell-based, minipig. The following applies: data not shown.
In data set [7] the target is T2, human MrgX2 (hMrgX2). Kind of data set: Ca2+ mobilization. The data set is classed as cell-based. The source holds these as a separate data set.
For data set [8] the following is noted: cited from earlier work.
The conditions of data set [9]: dog, cited from earlier work.
In data set [10] the target is T4, mouse MrgX2 (mMrgX2, Mrgprb2) (Mus musculus, UniProt Q3KNA1).
T4 sequence (Q3KNA1 1-338): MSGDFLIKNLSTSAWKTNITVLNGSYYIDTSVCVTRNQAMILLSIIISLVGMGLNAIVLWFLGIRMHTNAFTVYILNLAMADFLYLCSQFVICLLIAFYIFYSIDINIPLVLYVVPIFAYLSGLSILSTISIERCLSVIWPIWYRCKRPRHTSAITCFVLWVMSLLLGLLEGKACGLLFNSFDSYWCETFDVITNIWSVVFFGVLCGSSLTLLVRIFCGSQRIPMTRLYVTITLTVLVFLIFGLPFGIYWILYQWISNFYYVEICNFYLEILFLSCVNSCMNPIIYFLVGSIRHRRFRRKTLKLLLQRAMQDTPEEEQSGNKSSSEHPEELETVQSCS
The data set is described as follows: Ca2+ mobilization. Type of data set: cell-based. The following applies: no Gα16, up to 1mM.

The conditions of data set [11]: minipig; cited from earlier work.
Where [12] appears, read: untransfected U2OS parent cells.

Read-outs that look alike come from different tables or passages of the source. Residues, ends and D or L forms follow the SMILES beside them. No end group written: not given here.

human MrgX1 (hMrgX1), sequence (Q96LB2 whole entry): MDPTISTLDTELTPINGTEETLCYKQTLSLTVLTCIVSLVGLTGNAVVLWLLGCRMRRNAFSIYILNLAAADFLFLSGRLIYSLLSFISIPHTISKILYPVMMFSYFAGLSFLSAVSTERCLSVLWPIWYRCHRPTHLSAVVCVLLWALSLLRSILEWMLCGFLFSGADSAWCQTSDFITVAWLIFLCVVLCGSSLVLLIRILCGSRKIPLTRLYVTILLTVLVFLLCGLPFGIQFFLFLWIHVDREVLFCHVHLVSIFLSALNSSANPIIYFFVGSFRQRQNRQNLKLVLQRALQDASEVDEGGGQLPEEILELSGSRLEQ

Regarding `CCCC[C@@H]1NC(=O)[C@@](C)(NC(C)=O)CCCC=CCCC[C@@](C)(C(=O)N[C@@H](CC(N)=O)C(=O)N[C@@H](CCCNC(=N)N)C(=O)N[C@@H](CCC(N)=O)C(=O)N[C@@H](CCCCN)C(=O)N[C@H](C(=O)N[C@@H](CC(C)C)C(=O)N[C@@H](CCCNC(=N)N)C(=O)N[C@@H](CCCNC(=N)N)C(=O)N[C@H](C(=O)N[C@@]2(C)CCCC=CCCC[C@@](C)(C(=O)N[C@@H](CCC(=O)O)C(=O)N[C@@H](Cc3c[nH]c4ccccc34)C(=O)N[C@@H](CCCCN)C(=O)N[C@@H](CCC(N)=O)C(=O)N[C@@H](CCCNC(=N)N)C(N)=O)NC(=O)[C@H](CC(N)=O)NC(=O)[C@H](CC(C)C)NC(=O)[C@H]([C@@H](C)CC)NC2=O)[C@@H](C)O)[C@@H](C)CC)NC(=O)[C@H](CO)NC(=O)[C@H](Cc2ccccc2)NC1=O` (relative stereo) [GSK3212448], the “calcium response (in words)” value at minipig MrgX2 (mpMrgX2) was “activated”; on human MrgX2 (hMrgX2) [1] (hMrgX2-Gα16-U2OS cells), “could activate hMrgX2‐Gα16‐U2OS”; in data set [2] (U2OS cells transduced with Gα16 in the absence of hMrgX2), “but not Gα16‐U2OS cells”; in [4] it was “activated”; in the data set with pig MrgX2 (pMrgX2) it was “activated”. Also, the “time to observation of symptoms” value in the data set with rat is no more than 2 min. For the same compound, the “fold more potent than reference agonist 48/80” value in [3] (rMrgX2 in U2OS cells) is 18 fold.

In the case of CAS #: 130308-48-4 [Icatibant], the “fold less potent at mouse than human MrgX2” value in data set [5] is “twofold”. The “calcium response (in words)” value in data set [2] (setting [12]) was “No U2OS calcium response”.

For VGRPEWWMDYNKRYG [BAM8-22], the “calcium response (in words)” value at human MrgX1 (hMrgX1) was “higher potency at hMrgX1‐Gα16 cells”.

`CCCC[C@@H]1NC(=O)[C@@](C)(NC(C)=O)CCCC=CCCC[C@@](C)(C(=O)N[C@@H](CC(N)=O)C(=O)N[C@@H](CCCNC(=N)N)C(=O)N[C@@H](CCC(N)=O)C(=O)N[C@@H](CCCCN)C(=O)N[C@H](C(=O)N[C@@H](CC(C)C)C(=O)N[C@@H](CCC(=O)O)C(=O)N[C@@H](CCCNC(=N)N)C(=O)N[C@H](C(=O)N[C@@]2(C)CCCC=CCCC[C@@](C)(C(=O)N[C@@H](CCC(=O)O)C(=O)N[C@@H](Cc3c[nH]c4ccccc34)C(=O)N[C@@H](CCCCN)C(=O)N[C@@H](CCC(N)=O)C(=O)N[C@@H](CCCNC(=N)N)C(N)=O)NC(=O)[C@H](CC(N)=O)NC(=O)[C@H](CC(C)C)NC(=O)[C@H]([C@@H](C)CC)NC2=O)[C@@H](C)O)[C@@H](C)CC)NC(=O)[C@H](CO)NC(=O)[C@H](Cc2ccccc2)NC1=O` (relative stereo) [Peptide 4]: the “time to observation of symptoms” value in the data set on rat is no more than 3 min. Besides, the “IC50 (binding to EED)” value in data set [6] is on record as “high affinity”.

As to `C[C@@H](O)[C@@H]1NC(=O)[C@H](CCCCN)NC(=O)[C@H](Cc2c[nH]c3ccccc23)NC(=O)[C@H](Cc2ccccc2)NC(=O)[C@H](Cc2ccccc2)NC(=O)[C@H](CC(N)=O)NC(=O)[C@H](CCCCN)NC(=O)[C@@H](NC(=O)[C@@H]2CCCN2)CSSC[C@@H](C(=O)N[C@@H](CCCCN)C(=O)O)NC(=O)[C@H](CO)NC(=O)[C@H](CO)NC(=O)[C@H](Cc2ccccc2)NC1=O` [Cortistatin-14] (HELM PEPTIDE1{P.C.K.N.F.F.W.K.T.F.S.S.C.K}$PEPTIDE1,PEPTIDE1,2:R3-13:R3$$$V2.0), the “calcium response (in words)” value is recorded as “No U2OS calcium response” in data set [2] (setting [12]), “conferred a response” in [3], “failed to activate untransfected host cells” with HEK293-MSRII-Gα16 cells and “conferred calcium responses” in the data set with mpMrgX2. On human MrgX2 (hMrgX2) [7], the EC50 was 0.316 to 0.794 µM.

As to `CN[C@H](CC(C)C)C(=O)N[C@H]1C(=O)N[C@@H](CC(N)=O)C(=O)N[C@H]2C(=O)N[C@H]3C(=O)N[C@H](C(=O)N[C@H](C(=O)O)c4cc(O)cc(O)c4-c4cc3ccc4O)[C@H](O)c3ccc(c(Cl)c3)Oc3cc2cc(c3O[C@@H]2O[C@H](CO)[C@@H](O)[C@H](O)[C@H]2O[C@H]2C[C@](C)(N)[C@H](O)[C@H](C)O2)Oc2ccc(cc2Cl)[C@H]1O` [vancomycin], the results for the EC50 (at minipig MrgX2 (mpMrgX2); at human MrgX2 (hMrgX2) [1]; in data set [4]) were 158 µM, 39.8 µM and 25.1 µM, respectively. The Emax came to 84 ± 13% at minipig MrgX2 (mpMrgX2) (U2OS), 87 ± 8% on human MrgX2 (hMrgX2) [1] and 97 ± 12% in [4] (U2OS). Also, the “calcium response (in words)” value on minipig MrgX2 (mpMrgX2) was “full or near‐full agonist”; in [10] it was “did not reach maximal effect at 1mM”; in data set [2] (setting [12]), “Negligible calcium responses”; in [3], “did not reach maximal effect at 1mM”; in data set [4], “full or near‐full agonist”. For the same compound, the protein binding in [8] (serum) is reported as 50%. In addition, the Cmax in [8] (vancomycin-treated patients) was greater than 30 µM; in [9], “≈ 100 µg/ml”; in data set [11] it was 34000 ng/mL. Moreover, the “trough (lowest) free serum concentration” value in data set [8] (vancomycin-treated patients) is “≈ 5 ± 2 µmol/L”. The trough serum concentration in data set [8] (vancomycin-treated patients) is 13.6 ± 5.9 mg/L. Moreover, the “free Cmax” value in [9] (assuming 50% protein binding) is recorded as “≈ 35 µmol/L”; in data set [11], “≈ 23 µmol/L”. For the same compound, the “histamine-like symptoms (in words)” value in data set [9] and in [11] was “no histamine‐like symptoms were observed” throughout.

For `NCCc1c[nH]cn1` [histamine], the “calcium response (in words)” value in the data set on HEK293-MSRII-Gα16 cells is “did not cause calcium release”.

The record behind these values is PMC6887720 (Pharmacology Research & Perspectives, 2019).
